Measured values from patent EP0102319B1, “Prophylactic and therapeutic use of muramyl peptides and their analogues against viral infections” (CIBA-GEIGY AG, priority 1982, dated 1984).

Legend:
[1] = test system: Influenza A/Texas/1/77; assay: Lethal intranasal virus infection of mice, single dose of active substance, survival; assay type: in vivo, Mäuse
Protocol: (§1) Gruppen von 30, 40 oder 50 weiblichen MF-2f SPF-Mäusen mit einem Körpergewicht von 14-16 g bzw. 12-14 g bei den Versuchen mit Herpes simplex 1 Viren werden unter leichter Narkose mit einem Gemisch aus gleichen Teilen Aether, Äthanol und Chloroform mit letalen Dosen (ungefähr eine LD80-90; Anzahl der plaque forming units [PFU] siehe Tabelle 1) der untengenannten Viren-Stämme in Form von je 0,05 ml einer Suspension der Viren intranasal infiziert.
(§2) 10 oder 20 von diesen Mäusen werden zum unten angegebenen Zeitpunkt [Tage] bezogen auf den Tag der Infektion einmal (Einzeldosis) die in Tabelle 1 genannten Mengen der Wirksubstanz N-Acetyl- muramyl-L-alanyl-D-isoglutaminyl-L-alanin-2-(1.2-dipalmitoyl-sn-glycero-3-hydroxyphosphoryioxy)-äthylamid-natriumsalz (Verbindung I) in 0,05 bzw. 0,1 ml Phosphat-gepufferter-Salzlösung (PBS) bzw. in 0,2 ml einer 0,05 Gew.-%igen Lösung von Natriumcarboxymethylcellulose in doppelt destilliertem Wasser im Falle von intranasaler, intravenöser bzw. oraler Applikation auf die in Tabelle 1 genannte Art appliziert.
(§3) Die restlichen der obengenannten Mäuse, d. h. 20 oder 30, dienen zur Kontrolle, d. h. sie bleiben entweder unbehandelt oder erhalten ein Placebo.
(§4) Die intranasale Applikation von Verbindung I wird unter leichter Narkose mit einem Gemisch aus gleichen Teilen Diäthyläther, Aethanol und Chloroform durchgeführt.

[2] = test system: Herpesvirus hominis 1/TUP; assay: Lethal intranasal virus infection of mice, single dose of active substance, protection; assay type: in vivo, Mäuse; conditions: 10 mg/kg, day -7, intranasal infection (Figur 3)
Protocol: as §1, §2, §3, §4

[3] = intranasal, 1 mg/kg, single dose on day '-' (number not given) before infection
[4] = oral, 10 mg, single dose on day +7 after infection

Row | Structure (SMILES) | Schutzwirkung [1, 3] | outcome of infection (death of mice) [1, 4] | Schutzwirkung [2] | Mäuse die Infektion überleben [1, 3] [%] | Mäuse die Infektion überleben [1, 4] [%]
1 | CCCCOC(=O)[C@@H](CCC(N)=O)NC(=O)[C@H](C)NC(=O)[C@@H](C)O[C@H]1[C@H](O)[C@@H](CO)OC(O)[C@@H]1NC(C)=O (stereo partly drawn) [Verbindung II, N-Acetyl-muramyl-L-alanyl-D-glutamin-n-butylester] | keinerlei Schutzwirkung | sämtliche Mäuse an der Infektion mit Influenza A/Texas/1/77 sterben | Keinerlei Schutzwirkung |  | 
2 | CCCCCCCCCCCCCCCC(=O)OC[C@H](COP(=O)(O)OCCNC(=O)[C@H](C)NC(=O)CC[C@@H](NC(=O)[C@H](C)NC(=O)[C@@H](C)O[C@H]1[C@H](O)[C@@H](CO)OC(O)[C@@H]1NC(C)=O)C(N)=O)OC(=O)CCCCCCCCCCCCCCC (stereo partly drawn) [Verbindung I, N-Acetyl-muramyl-L-alanyl-D-isoglutaminyl-L-alanin-2-(1,2-dipalmitoyl-sn-glycero-3-hydroxyphosphoryloxy)-äthylamid] |  |  |  | 90 | 65
